This note sets out measurements from patent US11241455B2, “Methods of treating disease by metabolic control of T-cell differentiation” (The J. David Gladstone Institutes, a testamentary trust …, priority 2016, dated 2022).

The experiment concerns differentiating TH17 cells. In words: U-13C glutamine flux analysis in differentiating TH17 cells. The experiment is classed as cell-based, mouse. The settings on record: 2 mM U-13C-glutamine for 4 hours. The protocol: CD4 naïve T cells, differentiating TH17 or iTreg cells (68 hours) were incubated with fresh media prior to labeling. The cells were then cultured for 4 hours at 37° C. with medium where the glutamine was replaced with the corresponding stable isotope label: 2 mM U-^13C glutamine or 2 mM ^15N-α-glutamine for 4 hours at 37° C. The cells were quickly collected and quickly washed with phosphate buffer saline (PBS), pelleted, and snap frozen in liquid nitrogen. The frozen samples were kept in −80° C. until extraction. Cell extracts were prepared by first adding 80/20 MeOH/H2O at −60° C. to the frozen pellets and collecting the supernatant after centrifugation at 4° C. The extracted samples were analyzed by high-resolution liquid-chromatography-mass spectrometry. Unlabeled glutamine-fed cells were used as background. For negative mode metabolomics: Cell extracts obtained as described above were analyzed for relative abundance of metabolites by liquid chromatography-triple quadrupole mass spectrometry (LC-MS) using scheduled selective reaction monitoring (SRM) for each metabolite of interest, with the detector set to negative mode. Prior to injection, dried extracts were reconstituted in LC-MS grade water. LC separation was achieved by reverse-phase ion-pairing chromatography.

For the molecule `NOCC(=O)O` [AOA, (aminooxy)-acetic acid], the “de novo synthesis of α-KG and 2-HG (U-13C labeled, normalized to U-13C-glutamine)” value is “inhibited”.
